Laboratory results as given in patent US8993304B2, “Chloramphenicol resistance selection in Bacillus licheniformis” (Novozymes A/S, priority 2006, dated 2015).

Experiments:
Type in all cases: cell-based, Bacillus licheniformis
ATCC14580 = assay: Test of chloramphenicol resistance, growth in liquid TY+glucose culture; conditions: 30° C.
Description: (§1) Strains PP1897-3, SJ8071 (=PP1897-3 delta cat), ATCC14580, and SJ8344 (=ATCC14580 delta cat) were propagated in 10 ml TY (WO 94/14968, p16) supplemented with 0.5% glucose at 30° C. overnight, with shaking. 50 microliter aliquots were used to inoculate further 10 ml TY+glucose cultures, supplemented with chloramphenicol (cam) to concentrations: 1 microgram/ml, 2 microgram/ml, 3 microgram/ml, 6 microgram/ml, 9 microgram/ml, or 12 microtram/ml, and incubation with shaking continued at 30° C. Growth was scored by visual inspection of turbidity after approximately 7 hours (table 1), and again after overnight incubation (table 2).

PP1897-3 = assay: as above; conditions: 30° C.
Description: as §1

[1] = test system: SJ8071 (=PP1897-3 delta cat); assay: as above; conditions: 30° C.
Description: as §1

[2] = test system: SJ8344 (=ATCC14580 delta cat); assay: as above; conditions: 30° C.
Description: as §1

SJ8071 = assay: Growth on reisolation onto LPBSG plates with chloramphenicol; conditions: SJ8071 deletion strain; LPBSG plates with 10 mikrogram/ml chloramphenicol
Description: (§4) 2 erythromycin sensitive and chloramphenicol sensitive strains were kept as SJ8071 (from donor SJ8039) and SJ8072 (from donor SJ8041).

SJ8072 = assay: as above; conditions: SJ8072 deletion strain; LPBSG plates with 10 mikrogram/ml chloramphenicol
Description: as §4

control strain = assay: as above; conditions: LPBSG plates with 10 mikrogram/ml chloramphenicol
Description: as §4

[3] = test system: cat-deleted recipient strains; assay: Transconjugant selection on chloramphenicol plates; conditions: cat-deleted recipients (SJ8071, SJ8344); donor SJ8000; chloramphenicol 6 microgram/ml; 30° C. overnight
Description: (§2) B. licheniformis strains PP1897-3, the cat-deleted derivative SJ8071, strain ATCC14580, and the cat-deleted derivative SJ8344 were used as recipients in conjugations with donor strain SJ8000, essentially as described before.
(§3) For each donor/recipient combination, donor and recipient colonies were scraped off overnight plates and mixed in a small volume of liquid TY medium, and equal volumes from this mixture was plated on each of two LBPGS plates with D-alanine. Following 6 hours incubation at 30° C., one plate was replicaplated onto LBPGS with erythromycin (2 microgram/ml), and the other plate replica plated onto LPPGS with chloramphenicol (6 microgram/ml). These plates were incubated at 30° C. overnight, then left at room temperature (20-25° C.) for further 3 days.

[4] = test system: recipient strains containing intact, chromosomal chloramphenicol resistance genes; assay: Transconjugant selection on chloramphenicol plates; conditions: recipients with intact chromosomal cat (PP1897-3, ATCC14580); donor SJ8000; chloramphenicol 6 microgram/ml; 30° C. overnight
Description: as §2, §3

[5] = 1 μg/ml cam, after 7 hours incubation
[6] = 1 μg/ml cam, after overnight incubation
[7] = 2 μg/ml cam, after 7 hours incubation
[8] = 2 μg/ml cam, after overnight incubation
[9] = 3 μg/ml cam, after 7 hours incubation
[10] = 3 μg/ml cam, after overnight incubation
[11] = 6 μg/ml cam, after 7 hours incubation
[12] = 6 μg/ml cam, after overnight incubation
[13] = 9 μg/ml cam, after 7 hours incubation
[14] = 9 μg/ml cam, after overnight incubation
[15] = 12 μg/ml cam, after 7 hours incubation
[16] = 12 μg/ml cam, after overnight incubation

O=C(N[C@H](CO)[C@H](O)c1ccc([N+](=O)[O-])cc1)C(Cl)Cl [cam, chloramphenicol]
Growth scored by visual inspection of turbidity (ATCC14580; [5]): ++ | Growth scored by visual inspection of turbidity (ATCC14580; [6]): ++ | Growth scored by visual inspection of turbidity (ATCC14580; [7]): + | Growth scored by visual inspection of turbidity (ATCC14580; [8]): ++ | Growth scored by visual inspection of turbidity (ATCC14580; [9]): + | Growth scored by visual inspection of turbidity (ATCC14580; [10]): ++ | Growth scored by visual inspection of turbidity (ATCC14580; [11]): − | Growth scored by visual inspection of turbidity (ATCC14580; [12]): ++ | Growth scored by visual inspection of turbidity (ATCC14580; [13]): − | Growth scored by visual inspection of turbidity (ATCC14580; [14]): ++ | Growth scored by visual inspection of turbidity (ATCC14580; [15]): − | Growth scored by visual inspection of turbidity (ATCC14580; [16]): + | Growth scored by visual inspection of turbidity (PP1897-3; [5]): ++ | Growth scored by visual inspection of turbidity (PP1897-3; [6]): ++ | Growth scored by visual inspection of turbidity (PP1897-3; [7]): ++ | Growth scored by visual inspection of turbidity (PP1897-3; [8]): ++ | Growth scored by visual inspection of turbidity (PP1897-3; [9]): + | Growth scored by visual inspection of turbidity (PP1897-3; [10]): ++ | Growth scored by visual inspection of turbidity (PP1897-3; [11]): − | Growth scored by visual inspection of turbidity (PP1897-3; [12]): ++ | Growth scored by visual inspection of turbidity (PP1897-3; [13]): − | Growth scored by visual inspection of turbidity (PP1897-3; [14]): ++ | Growth scored by visual inspection of turbidity (PP1897-3; [15]): − | Growth scored by visual inspection of turbidity (PP1897-3; [16]): + | Growth scored by visual inspection of turbidity [1, 5]: + | Growth scored by visual inspection of turbidity [1, 6]: ++ | Growth scored by visual inspection of turbidity [1, 7]: − | Growth scored by visual inspection of turbidity [1, 8]: ++ | Growth scored by visual inspection of turbidity [1, 9]: − | Growth scored by visual inspection of turbidity [1, 10]: ++ | Growth scored by visual inspection of turbidity [1, 11]: − | Growth scored by visual inspection of turbidity [1, 12]: + | Growth scored by visual inspection of turbidity [1, 13]: − | Growth scored by visual inspection of turbidity [1, 14]: + | Growth scored by visual inspection of turbidity [1, 15]: − | Growth scored by visual inspection of turbidity [1, 16]: + | Growth scored by visual inspection of turbidity [2, 5]: + | Growth scored by visual inspection of turbidity [2, 6]: ++ | Growth scored by visual inspection of turbidity [2, 7]: − | Growth scored by visual inspection of turbidity [2, 8]: ++ | Growth scored by visual inspection of turbidity [2, 9]: − | Growth scored by visual inspection of turbidity [2, 10]: ++ | Growth scored by visual inspection of turbidity [2, 11]: − | Growth scored by visual inspection of turbidity [2, 12]: + | Growth scored by visual inspection of turbidity [2, 13]: − | Growth scored by visual inspection of turbidity [2, 14]: + | Growth scored by visual inspection of turbidity [2, 15]: − | Growth scored by visual inspection of turbidity [2, 16]: + | Growth when reisolated onto plates (SJ8071): absolutely no growth | Growth when reisolated onto plates (SJ8072): absolutely no growth | Growth when reisolated onto plates (control strain): some growth | Transconjugant colonies using chloramphenicol selection [3]: Distinct transconjugant colonies | Transconjugant colonies using chloramphenicol selection [4]: No distinct transconjugant colonies
